Values belong to the molecule of their own block, whether it stands above or below them.
Target: T1, EP1 receptors (Homo sapiens, UniProt P34995)
T1 sequence (P34995 1-402): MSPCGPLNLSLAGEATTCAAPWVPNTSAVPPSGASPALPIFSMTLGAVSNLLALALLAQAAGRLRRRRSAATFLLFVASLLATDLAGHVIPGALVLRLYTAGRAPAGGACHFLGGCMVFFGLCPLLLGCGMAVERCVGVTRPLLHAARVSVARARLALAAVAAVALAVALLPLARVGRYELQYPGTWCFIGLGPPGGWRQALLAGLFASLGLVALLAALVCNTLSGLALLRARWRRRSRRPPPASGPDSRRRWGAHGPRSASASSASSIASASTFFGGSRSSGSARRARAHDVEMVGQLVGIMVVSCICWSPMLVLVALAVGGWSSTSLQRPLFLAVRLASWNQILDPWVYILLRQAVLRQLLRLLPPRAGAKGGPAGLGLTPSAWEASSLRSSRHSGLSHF
Test: Binding assay for the human prostanoid EP1 receptor (competition with [3H]-PGE2)
Parameters: expressed in transfected cells; host or cells: CHO-K1 cells, membrane fraction
Details: [3H]-PGE2 competition; averages of a number of experiments; read-out: pIC50 value, binding assay for the human prostanoid EP1 receptor (converted)
Experimental: Competition assay using [^3H]-PGE2.
Compound potencies are determined using a radioligand binding assay. In this assay compound potencies are determined from their ability to compete with tritiated prostaglandin E2 ([^3H]-PGE2) for binding to the human EP1 receptor.
This assay utilises Chinese hamster ovary-K1 (CHO-K1) cells into which a stable vector containing the EP1 cDNA has previously been transfected. Cells are cultured in suitable flasks containing culture medium such as DMEM:F-12 supplemented with 10% v/v foetal calf serum, 2 mM L-glutamine, 0.25 mg/ml geneticin, 10 μg/ml puromycin and 10 μM indomethacin.
Cells are detached from the culture flasks by incubation in calcium and magnesium free phosphate buffered saline containing 1 mM disodium ethylenediaminetetraacetic acid (Na2EDTA) and 10 μM indomethacin for 5 min. The cells are isolated by centrifugation at 250×g for 5mins and suspended in an ice cold buffer such as 50 mM Tris, 1 mM Na2EDTA, 140 mM NaCl, 10 μM indomethacin (pH 7.4). The cells are homogenised using a Polytron tissue disrupter (2×10 s burst at full setting), centrifuged at 48,000×g for 20mins and the pellet containing the membrane fraction is washed (optional) three times by suspension and centrifugation at 48,000×g for 20mins. The final membrane pellet is suspended in an assay buffer such as 10 mM 2-[N-morpholino]ethanesulphonic acid, 1 mM Na2EDTA, 10 mM MgCl2 (pH 6). Aliquots are frozen at […] until required.
For the binding assay the cell membranes, competing compounds and [^3H]-PGE2 (3 nM final assay concentration) are incubated in a final volume of 100 μl for 30 min at 30° C. All reagents are prepared in assay buffer. Reactions are terminated by rapid vacuum filtration over GF/B filters using a Brandell cell harvester. The filters are washed with ice cold assay buffer, dried and the radioactivity retained on the filters is measured by liquid scintillation counting in Packard TopCount scintillation counter.
The data are analysed using non linear curve fitting techniques to determine the concentration of compound producing 50% inhibition of specific binding (IC50).

IC50: ≤ 31.6 nM
Structure (SMILES): O=C(O)Cc1csc(-c2cc(Cl)ccc2OCc2ccc(Cl)cc2F)n1 [Example 65, Sodium [2-(5-chloro-2-{[(4-chloro-2-fluorophenyl)methyl]oxy}phenyl)-1,3-thiazol-4-yl]acetate]

IC50: ≤ 1000 nM
Structure (SMILES): O=C(O)Cc1csc(-c2cc(Cl)ccc2OCc2ccc(F)cc2Cl)n1 [Example 66, Sodium [2-(5-chloro-2-{[(2-chloro-4-fluorophenyl)methyl]oxy}phenyl)-1,3-thiazol-4-yl]acetate]

IC50: ≤ 1000 nM
Structure (SMILES): O=C(O)Cc1csc(-c2cc(Cl)ccc2OCc2c(F)ccc(F)c2F)n1 [Example 67, Sodium [2-(5-chloro-2-{[(2,3,6-trifluorophenyl)methyl]oxy}phenyl)-1,3-thiazol-4-yl]acetate]

IC50: ≤ 1000 nM
Structure (SMILES): O=C(O)Cc1csc(-c2cc(Cl)ccc2OCc2cc(F)c(F)cc2F)n1 [Example 68, Sodium [2-(5-chloro-2-{[(2,4,5-trifluorophenyl)methyl]oxy}phenyl)-1,3-thiazol-4-yl]acetate]

IC50: ≤ 1000 nM
Structure (SMILES): O=C(O)Cc1csc(-c2cc(Cl)ccc2OCc2cc(F)c(F)c(F)c2)n1 [Example 69, Sodium [2-(5-chloro-2-{[(3,4,5-trifluorophenyl)methyl]oxy}phenyl)-1,3-thiazol-4-yl]acetate]

IC50: ≤ 1000 nM
Structure (SMILES): O=C(O)Cc1csc(-c2cc(Cl)ccc2OCc2ccccc2Cl)n1 [Example 70, Sodium [2-(5-chloro-2-{[(2-chlorophenyl)methyl]oxy}phenyl)-1,3-thiazol-4-yl]acetate]

IC50: ≤ 31.6 nM
Structure (SMILES): O=C(O)Cc1csc(-c2cc(Cl)ccc2OCc2ccc(Cl)cc2)n1 [Example 71, Sodium [2-(5-chloro-2-{[(4-chlorophenyl)methyl]oxy}phenyl)-1,3-thiazol-4-yl]acetate]

IC50: ≤ 1000 nM
Structure (SMILES): O=C(O)Cc1csc(-c2cc(Cl)ccc2OCc2ccc(F)cc2)n1 [Example 72, Sodium [2-(5-chloro-2-{[(4-fluorophenyl)methyl]oxy}phenyl)-1,3-thiazol-4-yl]acetate]

IC50: ≤ 31.6 nM
Structure (SMILES): O=C(O)Cc1csc(-c2cc(Cl)ccc2OCc2ccccc2)n1 [Example 73, Sodium [2-{5-chloro-2-[(phenylmethyl)oxy]phenyl}-1,3-thiazol-4-yl)acetate]

IC50: ≤ 31.6 nM
Structure (SMILES): O=C(O)c1nc(Cc2cc(Cl)ccc2OCc2ccc(F)cc2F)cs1 [Example 74, Sodium 4-[(5-chloro-2-{[(2,4-difluorophenyl)methyl]oxy}phenyl)methyl]-1,3-thiazole-2-carboxylate]

IC50: ≤ 1000 nM
Structure (SMILES): O=C(O)c1csc(Nc2cc(Cl)ccc2OCc2ccccc2)n1 [Example 75, Sodium 2-({5-chloro-2-[(phenylmethyl)oxy]phenyl}amino)-1,3-thiazole-4-carboxylate]

IC50: ≤ 31.6 nM
Structure (SMILES): O=C(O)c1nc(Cc2cc(Cl)ccc2OCc2ccccc2)cs1 [Example 76, Sodium 4-({5-chloro-2-[(phenylmethyl)oxy]phenyl}methyl)-1,3-thiazole-2-carboxylate]

IC50: ≤ 31.6 nM
Structure (SMILES): O=C(O)c1nc(Cc2cc(Cl)ccc2OCc2ccc(F)cc2)cs1 [Example 77, Sodium 4-[(5-chloro-2-{[(4-fluorophenyl)methyl]oxy}phenyl)methyl]-1,3-thiazole-2-carboxylate]

IC50: ≤ 31.6 nM
Structure (SMILES): O=C(O)c1coc(Cc2cc(Cl)ccc2OCc2ccccc2)n1 [Example 78, Sodium 2-({5-chloro-2-[(phenylmethyl)oxy]phenyl}methyl)-1,3-oxazole-4-carboxylate]

IC50: ≤ 1000 nM
Structure (SMILES): CC(C)COc1ccc(Cl)cc1C(F)(F)c1nc(C(=O)O)cs1 [Example 82, Sodium 2-[{5-chloro-2-[(2-methylpropyl)oxy]phenyl}(difluoro)methyl]-1,3-thiazole-4-carboxylate]

IC50: ≤ 31.6 nM
Structure (SMILES): O=C(O)c1nc(Cc2cc(Cl)ccc2OCc2ccccc2Cl)cs1 [Example 83, Sodium 4-[(5-chloro-2-{[(2-chlorophenyl)methyl]oxy}phenyl)methyl]-1,3-thiazole-2-carboxylate]

IC50: ≤ 31.6 nM
Structure (SMILES): O=C(O)c1nc(Cc2cc(Cl)ccc2OCc2ccccc2F)cs1 [Example 84, Sodium 4-[(5-chloro-2-{[(2-fluorophenyl)methyl]oxy}-phenyl)methyl]-1,3-thiazole-2-carboxylate]

IC50: ≤ 31.6 nM
Structure (SMILES): O=C(O)c1nc(Cc2cc(Cl)ccc2OCc2c(F)cc(F)cc2F)cs1 [Example 85, Sodium 4-[(5-chloro-2-{[(2,4,6-trifluorophenyl)methyl]-oxy}phenyl)methyl]-1,3-thiazole-2-carboxylate]

Further lines, the molecule ahead of its results:

Structure (SMILES): O=C(O)c1csc(Cc2cc(C(F)(F)F)ccc2OCC2CCCC2)n1 [Example 45, Sodium 2-{[2-[(cyclopentylmethyl)oxy]-5-(trifluoromethyl)phenyl]methyl}-1,3-thiazole-4-carboxylate]
IC50: ≤ 31.6 nM

Structure (SMILES): O=C(O)c1csc(Cc2cc(Br)ccc2OCc2ccccc2F)n1 [Example 51, Sodium 2-[(5-bromo-2-{[(2-fluorophenyl)methyl]oxy}phenyl)methyl]-1,3-thiazole-4-carboxylate]
IC50: ≤ 31.6 nM

Structure (SMILES): O=C(O)c1csc(Cc2cc(Br)ccc2OCc2ccc(F)cc2)n1 [Example 52, Sodium 2-[(5-bromo-2-{[(4-fluorophenyl)methyl]oxy}phenyl)methyl]-1,3-thiazole-4-carboxylate]
IC50: ≤ 31.6 nM

Structure (SMILES): O=C(O)c1csc(Cc2cc(Br)ccc2OCc2ccc(F)cc2F)n1 [Example 53, Sodium 2-[(5-bromo-2-{[(2,4-difluorophenyl)methyl]oxy}phenyl)methyl]-1,3-thiazole-4-carboxylate]
IC50: ≤ 31.6 nM

Structure (SMILES): O=C(O)c1csc(Cc2cc(Br)ccc2OCc2ccc(Br)cc2)n1 [Example 54, Sodium 2-[(5-bromo-2-{[(4-bromophenyl)methyl]oxy}phenyl)methyl]-1,3-thiazole-4-carboxylate]
IC50: ≤ 31.6 nM

Structure (SMILES): O=C(O)c1csc(Cc2cc(Br)ccc2OCc2c(F)cc(F)cc2F)n1 [Example 55, Sodium 2-[(5-bromo-2-{[(2,4,6-trifluorophenyl)methyl]oxy}phenyl)methyl]-1,3-thiazole-4-carboxylate]
IC50: ≤ 1000 nM

Structure (SMILES): O=C(O)c1csc(Cc2cc(Br)ccc2OCc2ccc(Cl)cc2)n1 [Example 56, Sodium 2-[(5-bromo-2-{[(4-chlorophenyl)methyl]oxy}phenyl)methyl]-1,3-thiazole-4-carboxylate]
IC50: ≤ 31.6 nM

Structure (SMILES): O=C(O)c1csc(Cc2cc(Br)ccc2OCc2ccccc2)n1 [Example 57, Sodium 2-({5-bromo-2-[(phenylmethyl)oxy]phenyl}methyl)-1,3-thiazole-4-carboxylate]
IC50: ≤ 31.6 nM

Structure (SMILES): O=C(O)c1csc(Cc2cc(Br)ccc2OCc2cc(F)c(F)cc2F)n1 [Example 58, Sodium 2-[(5-bromo-2-{[(2,4,5-trifluorophenyl)methyl]oxy}phenyl)methyl]-1,3-thiazole-4-carboxylate]
IC50: ≤ 31.6 nM

Structure (SMILES): O=C(O)c1csc(Cc2cc(Br)ccc2OCc2c(F)ccc(F)c2F)n1 [Example 59, Sodium 2-[(5-bromo-2-{[(2,3,6-trifluorophenyl)methyl]oxy}phenyl)methyl]-1,3-thiazole-4-carboxylate]
IC50: ≤ 31.6 nM

Structure (SMILES): O=C(O)c1csc(Cc2cc(Br)ccc2OCc2ccc(Cl)cc2F)n1 [Example 60, Sodium 2-[(5-bromo-2-{[(4-chloro-2-fluorophenyl)methyl]oxy}phenyl)methyl]-1,3-thiazole-4-carboxylate]
IC50: ≤ 31.6 nM

Structure (SMILES): O=C(O)c1csc(Cc2cc(Br)ccc2OCc2ccc(F)cc2Cl)n1 [Example 61, Sodium 2-[(5-bromo-2-{[(2-chloro-4-fluorophenyl)methyl]oxy}phenyl)methyl]-1,3-thiazole-4-carboxylate]
IC50: ≤ 31.6 nM

Structure (SMILES): O=C(O)Cc1csc(-c2cc(Cl)ccc2OCc2ccccc2F)n1 [Example 62, Sodium [2-(5-chloro-2-{[(2-fluorophenyl)methyl]oxy}phenyl)-1,3-thiazol-4-yl]acetate]
IC50: ≤ 1000 nM

Structure (SMILES): O=C(O)Cc1csc(-c2cc(Cl)ccc2OCc2ccc(F)cc2F)n1 [Example 63, Sodium [2-(5-chloro-2-{[(2,4-difluorophenyl)methyl]oxy}phenyl)-1,3-thiazol-4-yl]acetate]
IC50: ≤ 1000 nM

Structure (SMILES): O=C(O)Cc1csc(-c2cc(Cl)ccc2OCc2c(F)cc(F)cc2F)n1 [Example 64, Sodium [2-(5-chloro-2-{[(2,4,6-trifluorophenyl)methyl]oxy}phenyl)-1,3-thiazol-4-yl]acetate]
IC50: ≤ 1000 nM
